Source: ChEMBL document CHEMBL1201862, “PubChem BioAssay data set” (2004)
Active and inactive are the calls of the source.

Tests used:
[1] = biological target: T1, Mannose-6-phosphate isomerase (Homo sapiens, UniProt P34949); assay: human PMI inhibitors, high substrate, primary screen, biochemical, fluorescence intensity, high mannose 6-phosphate (AID 1220)
T1 sequence (P34949 whole entry): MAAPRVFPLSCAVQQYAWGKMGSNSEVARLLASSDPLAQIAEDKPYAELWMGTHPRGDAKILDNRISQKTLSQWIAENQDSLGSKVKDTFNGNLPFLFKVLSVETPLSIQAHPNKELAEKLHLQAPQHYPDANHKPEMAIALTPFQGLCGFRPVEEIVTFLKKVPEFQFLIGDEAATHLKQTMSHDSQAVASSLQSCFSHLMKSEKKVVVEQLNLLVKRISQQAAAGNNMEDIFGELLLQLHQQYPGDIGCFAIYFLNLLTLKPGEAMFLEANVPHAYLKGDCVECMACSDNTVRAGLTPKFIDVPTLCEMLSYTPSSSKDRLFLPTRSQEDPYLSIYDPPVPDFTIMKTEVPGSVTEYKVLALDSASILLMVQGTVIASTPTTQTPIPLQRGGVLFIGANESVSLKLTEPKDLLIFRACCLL

[2] = biological target: Mitogen-activated protein kinase 10 (Homo sapiens, UniProt P53779); assay: Dose response biochemical screening assay for inhibitors of c-Jun N-Terminal Kinase 3 (JNK3). [Related pubchem assays: 746 ]
Chain of Mitogen-activated protein kinase 10 (P53779 whole entry): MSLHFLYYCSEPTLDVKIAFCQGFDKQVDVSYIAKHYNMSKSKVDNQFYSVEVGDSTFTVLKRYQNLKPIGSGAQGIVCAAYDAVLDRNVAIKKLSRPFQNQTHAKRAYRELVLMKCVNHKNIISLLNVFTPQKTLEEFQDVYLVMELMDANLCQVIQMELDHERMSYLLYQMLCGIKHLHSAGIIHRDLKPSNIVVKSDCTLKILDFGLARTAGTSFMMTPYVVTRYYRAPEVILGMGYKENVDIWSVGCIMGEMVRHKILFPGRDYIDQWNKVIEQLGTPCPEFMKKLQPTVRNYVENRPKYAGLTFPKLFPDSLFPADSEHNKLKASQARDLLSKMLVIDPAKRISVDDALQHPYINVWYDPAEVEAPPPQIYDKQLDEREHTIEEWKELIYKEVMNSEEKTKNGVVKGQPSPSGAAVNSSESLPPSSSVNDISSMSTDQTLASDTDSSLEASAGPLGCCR

[3] = biological target: T2, Lysosomal acid glucosylceramidase (Homo sapiens, UniProt P04062); assay: Dose response cell-based high throughput screening assay to identify enhancers of beta-glucosidase activity. [Related pubchem assays: 784 ]; type: functional
T2 sequence (P04062 whole entry): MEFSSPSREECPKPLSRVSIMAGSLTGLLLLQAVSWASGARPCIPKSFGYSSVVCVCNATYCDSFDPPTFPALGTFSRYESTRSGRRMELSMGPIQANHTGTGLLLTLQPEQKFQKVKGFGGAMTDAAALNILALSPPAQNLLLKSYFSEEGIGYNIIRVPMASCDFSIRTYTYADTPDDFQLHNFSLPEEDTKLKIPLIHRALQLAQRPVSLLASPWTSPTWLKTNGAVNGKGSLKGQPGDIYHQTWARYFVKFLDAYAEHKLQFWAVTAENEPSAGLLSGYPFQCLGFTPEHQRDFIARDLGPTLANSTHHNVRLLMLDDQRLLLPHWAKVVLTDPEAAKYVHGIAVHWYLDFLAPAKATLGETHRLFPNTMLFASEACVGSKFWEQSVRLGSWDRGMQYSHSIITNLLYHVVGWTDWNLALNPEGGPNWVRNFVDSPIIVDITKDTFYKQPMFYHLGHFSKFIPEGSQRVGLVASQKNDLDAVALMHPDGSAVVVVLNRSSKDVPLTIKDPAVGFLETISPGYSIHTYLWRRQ

[4] = cells
[5] = biological target: T3, Oxysterols receptor LXR-beta (Homo sapiens, UniProt P55055); type: functional, cell-based;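 note: Cell-based luminescence dose-response assay of agonist activity at LXR, run as a confirmatory counterscreen to a daf-12 agonist screen; HEK293 cells with Gal4-LXR fusion and GAL4-driven luciferase reporter; agonist potency from rising luciferase signal of a Gal4-LXR reporter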
T3 sequence (P55055 whole entry): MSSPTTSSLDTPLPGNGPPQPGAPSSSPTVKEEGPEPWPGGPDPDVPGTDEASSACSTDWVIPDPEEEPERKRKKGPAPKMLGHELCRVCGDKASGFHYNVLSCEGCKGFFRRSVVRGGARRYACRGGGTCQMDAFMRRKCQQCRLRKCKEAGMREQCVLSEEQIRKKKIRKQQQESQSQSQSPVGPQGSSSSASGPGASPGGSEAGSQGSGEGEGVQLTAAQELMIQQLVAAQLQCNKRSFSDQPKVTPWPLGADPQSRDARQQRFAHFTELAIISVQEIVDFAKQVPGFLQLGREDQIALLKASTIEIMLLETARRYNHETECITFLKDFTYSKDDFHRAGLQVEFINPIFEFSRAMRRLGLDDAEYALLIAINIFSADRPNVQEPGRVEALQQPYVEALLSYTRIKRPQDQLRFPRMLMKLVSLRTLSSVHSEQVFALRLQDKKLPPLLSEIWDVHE

[6] = P. falciparum late gametocyte killing, dose response, luminescence (AID 1117278); type: functional, cell-based;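 note: gametocytes exposed to compound for 24 hours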
[7] = Jurkat T cell cytotoxicity, dose response, cytotoxicity control for P. falciparum gametocyte viability project, luminescence (AID 1117277); type: functional, cell-based;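 note: potency reflects loss of cellular ATP meaning fewer viable cells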
[8] = biological target: T4, Polyadenylate-binding protein 1 (Homo sapiens, UniProt P11940); assay: PABP1 MLLE–PAM2 binding inhibitor potency, dose response, biochemical, fluorescence polarization, FITC-PAM2 peptide (AID 602259); type: functional; settings: read-out: IC50_Mean
T4 sequence (P11940 whole entry): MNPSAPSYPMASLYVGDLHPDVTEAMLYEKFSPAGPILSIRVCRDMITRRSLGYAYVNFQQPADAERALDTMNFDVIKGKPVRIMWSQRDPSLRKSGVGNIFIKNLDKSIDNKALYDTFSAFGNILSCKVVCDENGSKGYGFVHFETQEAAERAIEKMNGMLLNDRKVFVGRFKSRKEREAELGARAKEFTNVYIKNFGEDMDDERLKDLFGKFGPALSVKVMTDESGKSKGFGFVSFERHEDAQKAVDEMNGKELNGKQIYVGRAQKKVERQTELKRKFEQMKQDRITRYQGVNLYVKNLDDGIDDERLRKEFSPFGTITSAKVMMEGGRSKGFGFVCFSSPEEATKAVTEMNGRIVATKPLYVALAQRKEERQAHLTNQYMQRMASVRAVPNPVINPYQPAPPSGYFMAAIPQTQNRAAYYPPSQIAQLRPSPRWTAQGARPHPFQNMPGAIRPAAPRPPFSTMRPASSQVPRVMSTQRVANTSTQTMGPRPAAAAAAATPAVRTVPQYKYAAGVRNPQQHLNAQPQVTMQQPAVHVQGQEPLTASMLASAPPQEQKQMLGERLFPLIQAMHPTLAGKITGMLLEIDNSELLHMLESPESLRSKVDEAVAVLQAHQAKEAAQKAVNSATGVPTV

[9] = cells; remark: listed apart in the source
[10] = biological target: T4, Polyadenylate-binding protein 1; assay: PABP1 MLLE–PAM2 interaction inhibitors, dose response, miRNA deadenylation inhibitor project, biochemical, fluorescence polarization, Cy5-PAM2 peptide, secondary (AID 602260); type: functional; settings: read-out: IC50_Mean
[11] = HEp-2 cell cytotoxicity, dose response, cytotoxicity control for RSV inhibitor project, HTS (AID 2410); type: functional; settings: human respiratory syncytial virus
[12] = biological target: T5, Estrogen receptor (Homo sapiens, UniProt P03372);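 note: potency for inhibiting coactivator peptide recruitment to the receptor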
T5 sequence (P03372 whole entry): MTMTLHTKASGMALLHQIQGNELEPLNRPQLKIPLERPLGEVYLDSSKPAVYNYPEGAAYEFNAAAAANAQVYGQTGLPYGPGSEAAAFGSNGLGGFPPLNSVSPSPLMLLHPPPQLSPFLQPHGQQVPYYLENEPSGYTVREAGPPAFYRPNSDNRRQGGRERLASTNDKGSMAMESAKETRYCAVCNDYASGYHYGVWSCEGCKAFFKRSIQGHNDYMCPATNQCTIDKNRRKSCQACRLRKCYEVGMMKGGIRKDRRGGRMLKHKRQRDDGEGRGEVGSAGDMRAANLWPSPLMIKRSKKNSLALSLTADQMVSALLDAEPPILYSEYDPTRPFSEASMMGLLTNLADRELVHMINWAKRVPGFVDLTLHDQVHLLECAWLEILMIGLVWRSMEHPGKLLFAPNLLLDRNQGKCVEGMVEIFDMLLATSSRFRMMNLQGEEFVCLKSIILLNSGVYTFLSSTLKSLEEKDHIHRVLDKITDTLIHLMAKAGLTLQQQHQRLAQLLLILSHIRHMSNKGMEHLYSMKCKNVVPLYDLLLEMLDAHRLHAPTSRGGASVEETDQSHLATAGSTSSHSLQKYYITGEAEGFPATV

[13] = THP-1 cell cytotoxicity, dose response, cytotoxicity control for Vif-APOBEC3G degradation inhibitor project, THP-1 cells (AID 1117359); type: functional; settings: Human immunodeficiency virus 1, THP-1
[14] = biological target: T6, Epstein-Barr nuclear antigen 1 (Epstein-Barr virus (strain B95-8) (HHV-4) (Human herpesvirus 4), UniProt P03211); assay: EBNA-1 inhibitors, dose response, biochemical, fluorescence polarization, 1536-well (AID 2381); set-up: species or system human gammaherpesvirus 4;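 note: fluorescence polarization of a Cy5 DNA probe bound by EBNA-1 protein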
T6 sequence (P03211 whole entry): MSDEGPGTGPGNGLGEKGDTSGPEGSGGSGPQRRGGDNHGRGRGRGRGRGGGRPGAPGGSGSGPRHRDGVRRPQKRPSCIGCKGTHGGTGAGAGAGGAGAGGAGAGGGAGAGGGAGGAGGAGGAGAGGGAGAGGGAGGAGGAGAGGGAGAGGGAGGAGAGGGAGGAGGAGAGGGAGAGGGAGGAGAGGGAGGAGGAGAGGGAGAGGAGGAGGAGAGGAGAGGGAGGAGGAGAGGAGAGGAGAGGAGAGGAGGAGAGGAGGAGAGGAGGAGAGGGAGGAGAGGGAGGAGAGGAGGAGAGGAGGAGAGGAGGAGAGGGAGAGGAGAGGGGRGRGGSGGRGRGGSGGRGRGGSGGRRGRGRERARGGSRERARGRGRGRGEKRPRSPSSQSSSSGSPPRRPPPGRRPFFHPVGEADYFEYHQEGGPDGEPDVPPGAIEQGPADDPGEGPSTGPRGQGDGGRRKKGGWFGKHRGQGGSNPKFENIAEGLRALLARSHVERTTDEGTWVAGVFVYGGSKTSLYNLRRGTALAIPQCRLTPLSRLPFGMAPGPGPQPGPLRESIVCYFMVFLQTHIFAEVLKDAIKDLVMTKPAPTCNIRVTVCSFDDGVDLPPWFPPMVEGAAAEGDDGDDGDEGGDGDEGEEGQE

[15] = biological target: T7, Lytic switch protein BZLF1 (Epstein-Barr virus (strain B95-8) (HHV-4) (Human herpesvirus 4), UniProt P03206); assay: EBV ZTA inhibitors, dose response, counter-screen for EBNA-1 inhibitor project, biochemical, fluorescence polarization, Epstein-Barr virus, 1536-well (AID 2377); set-up: species or system human gammaherpesvirus 4;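 note: fluorescence polarization of Cy5-labelled ZRE DNA probe bound by purified Zta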
T7 sequence (P03206 whole entry): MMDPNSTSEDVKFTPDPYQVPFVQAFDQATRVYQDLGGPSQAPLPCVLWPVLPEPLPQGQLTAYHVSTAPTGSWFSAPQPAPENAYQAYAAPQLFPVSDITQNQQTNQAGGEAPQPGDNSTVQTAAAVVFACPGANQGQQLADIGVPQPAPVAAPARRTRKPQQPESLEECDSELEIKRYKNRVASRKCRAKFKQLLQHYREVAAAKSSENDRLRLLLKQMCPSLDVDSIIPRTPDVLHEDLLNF

[16] = biological target: T8, Caspase-6 (Homo sapiens, UniProt P55212); assay: human caspase-6 inhibitors, dose response, biochemical, VEID-R110 fluorescence, cherry-pick (AID 720632)
T8 sequence (P55212 whole entry): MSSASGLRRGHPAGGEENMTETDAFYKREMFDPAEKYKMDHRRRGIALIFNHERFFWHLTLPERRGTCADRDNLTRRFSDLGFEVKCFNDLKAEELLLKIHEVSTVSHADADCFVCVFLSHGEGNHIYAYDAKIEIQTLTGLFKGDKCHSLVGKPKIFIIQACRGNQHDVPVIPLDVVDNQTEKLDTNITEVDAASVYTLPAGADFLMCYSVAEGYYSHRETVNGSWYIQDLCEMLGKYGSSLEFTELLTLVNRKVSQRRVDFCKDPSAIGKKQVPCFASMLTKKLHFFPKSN

[17] = biological target: T9, Carboxy-terminal domain RNA polymerase II polypeptide A small phosphatase 1 (Homo sapiens, UniProt Q9GZU7); assay: inhibitors of CTDSP1, concentration-response testing, biochemical assay, absorbance-based, actives from ultra-high-throughput screening (AID 540297); type: functional
T9 sequence (Q9GZU7 whole entry): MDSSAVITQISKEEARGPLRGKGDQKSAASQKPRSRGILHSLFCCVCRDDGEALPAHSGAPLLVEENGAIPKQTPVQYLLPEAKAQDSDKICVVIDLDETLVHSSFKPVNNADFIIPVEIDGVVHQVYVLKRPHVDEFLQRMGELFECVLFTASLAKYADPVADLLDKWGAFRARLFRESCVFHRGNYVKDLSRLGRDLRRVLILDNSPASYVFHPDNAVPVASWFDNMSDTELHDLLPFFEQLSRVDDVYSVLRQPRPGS

With CN(C)c1cccc2c(C#N)ccc(N(C)C)c12 the IC50 [1] was > 50 µM (not active).

In the case of CCN(CC)S(=O)(=O)c1ccc2nc(COC(=O)c3n[nH]c4ccccc34)[nH]c2c1, the IC50 [2] is reported as 0.401 µM (active).

In the case of O=C(CCNS(=O)(=O)c1cccc2nsnc12)NC1CCN(Cc2ccccc2)CC1, the EC50 [3] is reported as > 50 µM (not active).

For O=C(NC(=S)Nc1ccc(Br)cn1)c1cccs1, the EC50 [4] was > 67.5 µM (inactive) and the EC50 [5] was > 67.5 µM (inactive).

In the case of O=C(NCc1ccc(F)cc1)C(Cc1ccccc1)NS(=O)(=O)c1cccs1 (stereo not drawn), the IC50 [6] is reported as > 109 µM (inactive) and the IC50 [7] is reported as > 83.3 µM (inactive).

In the case of c1coc(-c2nn3c(Cn4nnc5ccccc54)nnc3s2)c1, the IC50 [8] is reported as > 66 µM (inactive), the IC50 [9] is reported as 8.25 µM (active) and the IC50 [10] is reported as > 66 µM (inactive).

With COc1cc2c(cc1NC(=O)Nc1ccccc1)oc1ccccc12 the IC50 [9] was 30.4 µM (active) and the CC50 [11] was 13.2 µM (active).

With CC(=O)Nc1nc(C=C(Cl)Cl)cs1 the IC50 [12] was > 50 µM (not active).

With CC(C)(C)C(=O)OCc1nc(-c2ccc(O)c(O)c2)cs1 the CC50 [13] was 27.8 µM (active).

With Cc1ccc(-n2c(SCC(=O)NCc3ccco3)nc3c4ccccc4nc-3c2O)cc1 the CC50 [13] was > 40 µM (active).

In the case of CCOC(=O)[C@H]1[C@H]2COc3ccc(Cl)cc3[C@@H]2N2C(=O)c3ccc(Cl)cc3NC(=O)[C@@]12C, the IC50 [14] is reported as > 148 µM (not active) and the IC50 [15] is reported as > 111 µM (not active).

In the case of O=[N+]([O-])c1c(NCCO)cc(N2CCC3(CC2)OCCO3)c2nonc12, the IC50 [1] is reported as > 50 µM (not active).

For CN(C)c1ccc(S(=O)(=O)N2CCCCC2)cc1NC(=O)COc1ccccc1F, the IC50 [6] was > 109 µM (inactive) and the IC50 [7] was > 83.3 µM (inactive).

For CCOC(=O)c1ccc(-c2csc(NC(=O)CN3CCC(C)CC3)n2)cc1, the IC50 [14] was 5.32 µM (active) and the IC50 [15] was > 111 µM (not active).

In the case of Cc1ccccc1CS(=O)(=O)Cc1ccc(C(=O)NCc2ccco2)o1, the EC50 [3] is reported as > 50 µM (not active).

With O=c1c2sccc2n(Cc2cc(=O)n3ccccc3n2)c(=O)n1-c1ccccc1 the IC50 [9] was 14 µM (active).

In the case of Nc1c(C(=O)Nc2ccccc2)sc2nc(-c3ccco3)ccc12, the IC50 [14] is reported as 6.43 µM (active) and the IC50 [15] is reported as > 111 µM (not active).

For Cc1cccc(Nc2nc(NCc3ccco3)nc(N3CCOCC3)n2)c1, the IC50 [6] was > 109 µM (inactive), the IC50 [7] was > 83.3 µM (inactive) and the CC50 [11] was 36.8 µM (active).

With Cc1nnc(NS(=O)(=O)c2ccc(N=Nc3ccc(N)nc3N)cc2)s1 the AC50 [16] was 3.23 µM (active).

With C(=C\c1ccc([C@H]2[C@H]3CNC[C@@H]2N3Cc2ccccn2)cc1)/c1ccccc1 the AC50 [16] was 41.9 µM (active).

For CN(/N=C/c1cccnc1)c1cnn(-c2ccc(F)c(Cl)c2)c(=O)c1Cl, the IC50 [12] was 17.9 µM (active) and the IC50 [17] was > 80 µM (inactive).
